The source of these data is US12421225B2, “Heteroaromatic amide derivative and medicament containing the same” (KAKEN PHARMACEUTICAL CO., LTD., priority 2018, dated 2025).

One data set addresses human Nav1.7 (Homo sapiens (Human), UniProt Q15858). The data set is described as follows: Human Nav1.7 inhibitory activity evaluation (automated patch clamp QPatch16X, HEK293A cells stably expressing human Nav1.7 and human Navβ1). It counts as cell-based. A digest of the protocol:
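QPatch16X whole-cell recordings at room temperature from HEK293A cells stably expressing human Nav1.7 with Navβ1, CsF-based internal solution, pH 7.4 external, 0.1% DMSO. From −100 mV holding, protocol included a 15 s hold at a potential inactivating ~30-40% of channels; IC50 from inward current at the second −10 mV pulse.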

The target of another data set is human Nav1.5 (Homo sapiens (Human), UniProt Q14524). The experiment in a line: Human Nav1.5 inhibitory activity evaluation (automated patch clamp QPatch16X, HEK293 cells stably expressing human Nav1.5). The format is cell-based. The procedure: Test Example 2: Human Nav1.5 Inhibitory Activity Evaluation
Chain of human Nav1.5 (Q14524 whole entry): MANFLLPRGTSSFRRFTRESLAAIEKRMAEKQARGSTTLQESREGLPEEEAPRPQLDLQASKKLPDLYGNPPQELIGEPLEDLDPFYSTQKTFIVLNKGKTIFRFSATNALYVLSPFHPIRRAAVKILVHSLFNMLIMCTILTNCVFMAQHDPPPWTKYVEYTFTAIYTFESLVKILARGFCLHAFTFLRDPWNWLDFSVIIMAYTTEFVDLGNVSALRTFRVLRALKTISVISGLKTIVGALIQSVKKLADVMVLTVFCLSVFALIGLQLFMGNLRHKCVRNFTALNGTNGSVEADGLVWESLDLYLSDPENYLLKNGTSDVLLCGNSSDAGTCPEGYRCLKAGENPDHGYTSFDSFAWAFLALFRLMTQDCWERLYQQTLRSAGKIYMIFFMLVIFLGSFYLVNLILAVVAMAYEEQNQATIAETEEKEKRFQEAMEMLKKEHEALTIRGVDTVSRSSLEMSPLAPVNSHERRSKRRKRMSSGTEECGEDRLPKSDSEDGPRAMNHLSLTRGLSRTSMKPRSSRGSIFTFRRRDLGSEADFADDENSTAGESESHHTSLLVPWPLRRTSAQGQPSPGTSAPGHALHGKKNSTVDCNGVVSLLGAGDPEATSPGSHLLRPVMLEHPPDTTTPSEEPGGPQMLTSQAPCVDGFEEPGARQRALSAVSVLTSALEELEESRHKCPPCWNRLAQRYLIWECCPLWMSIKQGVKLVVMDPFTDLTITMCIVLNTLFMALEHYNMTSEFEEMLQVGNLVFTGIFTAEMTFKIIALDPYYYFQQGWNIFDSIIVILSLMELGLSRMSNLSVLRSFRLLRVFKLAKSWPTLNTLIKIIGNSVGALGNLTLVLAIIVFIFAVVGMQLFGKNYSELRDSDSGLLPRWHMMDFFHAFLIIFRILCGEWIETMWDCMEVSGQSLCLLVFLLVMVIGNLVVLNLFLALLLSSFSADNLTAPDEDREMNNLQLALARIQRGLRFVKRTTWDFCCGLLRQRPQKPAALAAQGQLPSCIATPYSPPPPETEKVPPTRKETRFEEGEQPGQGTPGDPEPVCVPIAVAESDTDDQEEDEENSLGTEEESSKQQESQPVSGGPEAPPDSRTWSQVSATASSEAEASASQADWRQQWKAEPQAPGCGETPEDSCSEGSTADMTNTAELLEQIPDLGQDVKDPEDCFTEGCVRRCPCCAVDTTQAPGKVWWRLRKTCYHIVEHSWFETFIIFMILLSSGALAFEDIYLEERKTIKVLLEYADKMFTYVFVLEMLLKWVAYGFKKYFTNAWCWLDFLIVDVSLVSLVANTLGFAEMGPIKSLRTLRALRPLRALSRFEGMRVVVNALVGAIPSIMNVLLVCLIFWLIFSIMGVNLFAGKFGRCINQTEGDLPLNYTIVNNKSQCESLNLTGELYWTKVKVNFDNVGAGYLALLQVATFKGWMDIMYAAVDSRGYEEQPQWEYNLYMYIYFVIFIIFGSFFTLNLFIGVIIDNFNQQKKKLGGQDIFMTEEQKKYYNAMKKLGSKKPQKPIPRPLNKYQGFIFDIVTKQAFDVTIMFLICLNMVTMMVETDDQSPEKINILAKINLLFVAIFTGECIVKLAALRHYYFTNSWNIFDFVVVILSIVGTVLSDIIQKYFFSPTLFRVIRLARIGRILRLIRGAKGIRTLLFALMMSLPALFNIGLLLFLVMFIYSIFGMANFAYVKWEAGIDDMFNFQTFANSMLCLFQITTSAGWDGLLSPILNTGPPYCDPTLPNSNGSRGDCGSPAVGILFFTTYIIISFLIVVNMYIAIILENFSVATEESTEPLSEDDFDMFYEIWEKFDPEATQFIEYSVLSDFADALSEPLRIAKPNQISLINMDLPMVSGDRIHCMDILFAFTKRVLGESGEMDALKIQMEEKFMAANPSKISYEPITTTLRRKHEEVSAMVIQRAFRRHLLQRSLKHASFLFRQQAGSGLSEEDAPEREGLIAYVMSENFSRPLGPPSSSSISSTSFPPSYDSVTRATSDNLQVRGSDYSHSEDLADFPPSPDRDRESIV
A cell line in which human Nav1.5 was stably expressed in HEK293 cells was used. DMEM supplemeted with 15% fetal bovine serum, 500 μg/ml geneticin, 100 units/ml penicillin, 100 μg/ml streptomycin, 20 mM HEPES was used as culture medium under the conditions of 37° C. and 5% CO2 in T175 flasks to carry out culturing. When 60-80% confluence was reached, a cell suspension of about 0.5-5.0×10^6 cells/mL was prepared. The amount of current through human Nav1.5 was recorded using a fully automatic patch clamp device QPatch16X at room temperature. As the extracellular solution, 145 mM NaCl, 4 mM KCl, 1 mM MgCl2, 2 mM CaCl2, 10 mM Glucose, and 10 mM HEPES at pH 7.4 was used. As the intracellular solution, 135 mM CsF, ⅕ mM EGTA/CsOH, 10 mM HEPES, and 10 mM NaCl at pH 7.3 was used. The test compounds were dissolved in DMSO and diluted with the extracellular solution to attend the DMSO concentration of 0.1% at the time of assay.
The current response was obtained at a sampling frequency of 25 kHz, and noise was removed with a 3 kHz low-pass filter. The holding potential was −80 mV. Correction of the leakage current was carried out by applying a step pulse of −100 mV before the test pulse. In order to investigate human Nav1.5 inhibitory effect of the test compound, test pulses imitating the action potential of cardiomyocytes were continuously given 20 times. The test pulses were given before and after the test compound addition.
The inhibitory activity of the test compound was determined based on the amount of inward current generated by the 20th depolarization pulse, and the 50% inhibitory concentration (IC50) was calculated from the concentration-response curve.
Background: The patch-clamp technique gives a direct electrical read-out from membranes.

[1] abbreviates: HEK293A cells stably expressing human Nav1.7 and human Navβ1, automated patch clamp QPatch16X.
[2] abbreviates: HEK293 cells stably expressing human Nav1.5, automated patch clamp QPatch16X.
The mark [3] stands for this setting: human Nav1.7, automated patch clamp.
Where [4] appears, read: human Nav1.5, automated patch clamp.

Chain of human Nav1.7 (Q15858 whole entry): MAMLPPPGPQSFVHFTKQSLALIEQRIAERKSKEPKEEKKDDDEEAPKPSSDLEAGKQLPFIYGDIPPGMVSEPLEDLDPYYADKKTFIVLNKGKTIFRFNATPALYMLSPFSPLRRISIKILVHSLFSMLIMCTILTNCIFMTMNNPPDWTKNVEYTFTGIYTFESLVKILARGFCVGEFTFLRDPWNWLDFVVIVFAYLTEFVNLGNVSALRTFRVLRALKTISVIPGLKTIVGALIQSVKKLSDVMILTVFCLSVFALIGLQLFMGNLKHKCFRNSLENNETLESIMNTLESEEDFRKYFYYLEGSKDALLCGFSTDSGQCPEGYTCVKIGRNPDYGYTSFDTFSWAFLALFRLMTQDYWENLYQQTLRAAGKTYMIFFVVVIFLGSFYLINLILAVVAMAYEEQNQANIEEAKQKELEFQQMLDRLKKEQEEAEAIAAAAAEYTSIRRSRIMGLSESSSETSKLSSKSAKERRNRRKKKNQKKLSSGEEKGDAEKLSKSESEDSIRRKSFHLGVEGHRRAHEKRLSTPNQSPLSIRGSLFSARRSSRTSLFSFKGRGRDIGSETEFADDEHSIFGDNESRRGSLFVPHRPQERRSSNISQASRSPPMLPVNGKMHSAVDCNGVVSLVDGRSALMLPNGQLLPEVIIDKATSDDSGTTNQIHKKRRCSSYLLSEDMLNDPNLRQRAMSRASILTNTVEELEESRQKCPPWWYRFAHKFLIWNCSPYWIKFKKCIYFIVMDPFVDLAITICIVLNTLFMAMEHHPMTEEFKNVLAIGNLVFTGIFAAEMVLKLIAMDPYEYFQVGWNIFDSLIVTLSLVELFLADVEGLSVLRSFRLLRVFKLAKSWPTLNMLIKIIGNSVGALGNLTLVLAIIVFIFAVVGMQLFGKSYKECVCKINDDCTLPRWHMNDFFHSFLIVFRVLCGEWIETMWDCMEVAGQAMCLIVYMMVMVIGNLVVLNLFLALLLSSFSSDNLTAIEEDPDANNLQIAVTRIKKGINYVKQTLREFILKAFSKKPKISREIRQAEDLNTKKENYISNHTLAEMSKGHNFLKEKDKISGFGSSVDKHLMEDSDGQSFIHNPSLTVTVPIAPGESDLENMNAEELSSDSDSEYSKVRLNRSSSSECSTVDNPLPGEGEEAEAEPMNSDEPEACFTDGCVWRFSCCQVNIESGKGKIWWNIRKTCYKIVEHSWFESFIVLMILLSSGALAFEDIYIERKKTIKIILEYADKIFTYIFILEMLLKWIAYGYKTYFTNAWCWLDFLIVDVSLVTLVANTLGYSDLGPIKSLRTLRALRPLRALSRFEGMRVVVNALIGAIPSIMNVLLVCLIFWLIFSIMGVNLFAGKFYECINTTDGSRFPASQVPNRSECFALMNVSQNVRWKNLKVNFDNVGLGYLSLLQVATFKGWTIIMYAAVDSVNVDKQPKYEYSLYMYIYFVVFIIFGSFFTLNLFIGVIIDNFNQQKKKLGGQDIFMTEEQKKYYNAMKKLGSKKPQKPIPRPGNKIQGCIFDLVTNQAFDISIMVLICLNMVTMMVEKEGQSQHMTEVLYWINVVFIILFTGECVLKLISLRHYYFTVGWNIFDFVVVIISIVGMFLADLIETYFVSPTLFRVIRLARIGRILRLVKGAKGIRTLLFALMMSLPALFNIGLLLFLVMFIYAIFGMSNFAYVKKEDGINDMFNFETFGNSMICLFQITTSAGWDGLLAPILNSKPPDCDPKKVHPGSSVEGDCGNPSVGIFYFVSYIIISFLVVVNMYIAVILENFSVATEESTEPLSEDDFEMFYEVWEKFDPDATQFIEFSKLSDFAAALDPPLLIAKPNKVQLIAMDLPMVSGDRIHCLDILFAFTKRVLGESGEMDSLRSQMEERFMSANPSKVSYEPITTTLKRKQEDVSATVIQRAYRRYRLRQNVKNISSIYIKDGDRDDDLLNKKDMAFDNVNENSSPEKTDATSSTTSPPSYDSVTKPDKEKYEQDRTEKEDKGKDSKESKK
Chain of human Nav1.7 (Q07699 19-218 partner): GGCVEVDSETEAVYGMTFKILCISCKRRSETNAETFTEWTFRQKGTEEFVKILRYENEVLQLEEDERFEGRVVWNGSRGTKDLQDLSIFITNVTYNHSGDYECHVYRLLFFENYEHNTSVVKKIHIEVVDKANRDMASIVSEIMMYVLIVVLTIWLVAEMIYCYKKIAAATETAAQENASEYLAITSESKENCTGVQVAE

One may read the IC50 as the concentration needed to halve the response being measured. Take `N#Cc1ccc2c(c1)C[C@@H](NC(=O)c1cc3n(n1)CCC(COCC1CC1)O3)CO2` (mixture of isomers) [Example 102, N—((R)-6-cyanochroman-3-yl)-5-((cyclopropylmethoxy)methyl)-6,7-dihydro-5H-pyrazolo[5,1-b][1,3]oxazine-2-carboxamide]: the IC50 against human Nav1.7 (setting [1]) was < 1 µM; on human Nav1.5 (setting [2]), ≥ 3 µM.
With `N#Cc1ccc2c(c1)C[C@@H](NC(=O)c1cc3n(n1)CCC(COCC(F)(F)F)O3)CO2` (mixture of isomers) [Example 114, N—((R)-6-cyanochroman-3-yl)-5-((2,2,2-trifluoroethoxy)methyl)-6,7-dihydro-5H-pyrazolo[5,1-b][1,3]oxazine-2-carboxamide], the concentration for half-maximal inhibition (IC50) is < 10 µM against human Nav1.7 (setting [1]) and ≥ 3 µM at human Nav1.5 (setting [2]).
Taken in the same sequence, the figures for `O=C(N[C@H]1COc2ccc(COCC(F)(F)F)cc2C1)c1cc2n(n1)CCC(COCC(F)(F)F)O2` (mixture of isomers) [Example 128, 5-((2,2,2-trifluoroethoxy)methyl)-N—((R)-6-((2,2,2-trifluoroethoxy)methyl)chroman-3-yl)-6,7-dihydro-5H-pyrazolo[5,1-b][1,3]oxazine-2-carboxamide] were < 1 µM and 1 to 3 µM.
The corresponding values for `N#Cc1ccc2c(c1)C[C@@H](NC(=O)c1cc3n(n1)CCC(COC(F)(F)F)O3)CO2` (mixture of isomers) [Example 133, N—((R)-6-cyanochroman-3-yl)-5-((trifluoromethoxy)methyl)-6,7-dihydro-5H-pyrazolo[5,1-b][1,3]oxazine-2-carboxamide] are < 1 µM and 1 to 3 µM.
With `O=C(N[C@H]1COc2ccc(C(F)(F)F)cc2C1)c1cc2n(n1)CCC(C(F)F)O2` (mixture of isomers) [Example 160, 5-(difluoromethyl)-N—((R)-6-(trifluoromethyl)chroman-3-yl)-6,7-dihydro-5H-pyrazolo[5,1-b][1,3]oxazine-2-carboxamide], the results for the IC50 at human Nav1.7 (setting [3]) and at human Nav1.5 (setting [4]) were < 1 µM and ≥ 3 µM, respectively.
For the compound `COc1ncc(-c2ccc3c(c2)C[C@@H](NC(=O)c2cc4n(n2)CC(CCOCC2CC2)O4)CO3)cn1` (mixture of isomers) [Example 203, 2-(2-(cyclopropylmethoxy)ethyl)-N—((R)-6-(2-methoxypyrimidin-5-yl)chroman-3-yl)-2,3-dihydropyrazolo[5,1-b]oxazole-6-carboxamide], the half-inhibitory concentration (IC50) was < 1 µM against human Nav1.7 (setting [3]) and ≥ 3 µM against human Nav1.5 (setting [4]).
Turning to `N#Cc1ccc2c(c1)C[C@@H](NC(=O)c1cc3n(n1)CCC(COCC1(F)CC1)O3)CO2` (mixture of isomers) [Example 532], the IC50 on human Nav1.7 (setting [3]) was < 10 µM; against human Nav1.5 (setting [4]) it was ≥ 3 µM.
For the compound `O=C(N[C@H]1COc2ccc(C(F)F)cc2C1)c1cn2c(n1)CCC(C(F)(F)F)C2` (single isomer, unassigned) [7 (isomer A)], the IC50 on human Nav1.7 (setting [1]) is < 1 µM; against human Nav1.5 (setting [2]), 1 to 3 µM.
The corresponding values for `O=C(N[C@H]1COc2ccc(C(F)F)cc2C1)c1cn2c(n1)CCC(C(F)(F)F)C2` (single isomer, unassigned) [7 (isomer B)] are < 1 µM and ≥ 3 µM.
The corresponding values for `O=C(NC1COc2cccc(Br)c2C1)c1cn2c(n1)CCC(C(F)(F)F)C2` (single isomer, unassigned) [9 (isomer A)] are < 10 µM and ≥ 3 µM.
Consider `O=C(NC1COc2cccc(Br)c2C1)c1cn2c(n1)CCC(C(F)(F)F)C2` (single isomer, unassigned) [9 (isomer B)], for which the IC50 is < 1 µM against human Nav1.7 (setting [1]) and ≥ 3 µM against human Nav1.5 (setting [2]).
`O=C(N[C@H]1COc2ccc(Cl)cc2C1)c1cn2c(n1)CCC(OCC(F)(F)F)C2` (single isomer, unassigned) [39 (isomer A)]: the IC50 was < 10 µM against human Nav1.7 (setting [1]) and 1 to 3 µM at human Nav1.5 (setting [2]).
For `O=C(N[C@H]1COc2ccc(Cl)cc2C1)c1cn2c(n1)CCC(OCC(F)(F)F)C2` (single isomer, unassigned) [39 (isomer B)], the IC50 at human Nav1.7 (setting [1]) is < 10 µM; against human Nav1.5 (setting [2]) it was ≥ 3 µM.
`CCCC1CCn2nc(C(=O)N[C@H]3COc4ccc(C#N)cc4C3)cc2O1` (single isomer, unassigned) [95 (isomer A)]: the IC50 at human Nav1.7 (setting [1]) was < 1 µM; on human Nav1.5 (setting [2]), ≥ 3 µM.
Consider `N#Cc1ccc2c(c1)C[C@@H](NC(=O)c1cc3n(n1)CCC(CC1CC1)O3)CO2` (single isomer, unassigned) [97 (isomer B)], for which the half-maximal inhibitory concentration (IC50) against human Nav1.5 (setting [2]) is ≥ 3 µM.
Regarding `CCCOCC1CCn2nc(C(=O)N[C@H]3COc4ccc(C#N)cc4C3)cc2O1` (single isomer, unassigned) [101 (isomer B)], the IC50 at human Nav1.7 (setting [1]) is < 10 µM; on human Nav1.5 (setting [2]) it was ≥ 3 µM.
The corresponding values for `N#Cc1ccc2c(c1)C[C@@H](NC(=O)c1cc3n(n1)CCC(COCC1CC1)O3)CO2` (single isomer, unassigned) [103 (isomer B)] are < 10 µM and ≥ 3 µM.
Taken in the same sequence, the figures for `O=C(N[C@H]1COc2ccc(CC(F)F)cc2C1)c1cc2n(n1)CCC(COCC1CC1)O2` (single isomer, unassigned) [109 (isomer A)] were < 1 µM and 1 to 3 µM.
On to `O=C(N[C@H]1COc2ccc(CC(F)F)cc2C1)c1cc2n(n1)CCC(COCC1CC1)O2` (single isomer, unassigned) [109 (isomer B)], for which the half-inhibitory concentration (IC50) on human Nav1.7 (setting [1]) is < 10 µM; against human Nav1.5 (setting [2]) it was ≥ 3 µM.
Taken in the same sequence, the figures for `O=C(N[C@H]1COc2ccc(-c3ccccn3)cc2C1)c1cc2n(n1)CCC(COCC1CC1)O2` (single isomer, unassigned) [111 (isomer A)] were < 1 µM and 1 to 3 µM.
Compound `O=C(N[C@H]1COc2ccc(-c3ccccn3)cc2C1)c1cc2n(n1)CCC(COCC1CC1)O2` (single isomer, unassigned) [111 (isomer B)] returned a concentration for half-maximal inhibition (IC50) against human Nav1.5 (setting [2]) of 1 to 3 µM.
On to `CC1(COCC2CCn3nc(C(=O)N[C@H]4COc5ccc(C#N)cc5C4)cc3O2)CC1` (single isomer, unassigned) [113 (isomer A)], for which the IC50 at human Nav1.7 (setting [1]) was < 1 µM; on human Nav1.5 (setting [2]), 1 to 3 µM.
Taken in the same sequence, the figures for `CC1(COCC2CCn3nc(C(=O)N[C@H]4COc5ccc(C#N)cc5C4)cc3O2)CC1` (single isomer, unassigned) [113 (isomer B)] were < 1 µM and < 1 µM.
As to `CCOCC1CCn2nc(C(=O)N[C@H]3COc4ccc(-c5ccccn5)cc4C3)cc2O1` (single isomer, unassigned) [124 (isomer A)], the values for the IC50 on human Nav1.7 (setting [1]) and against human Nav1.5 (setting [2]) were < 1 µM and ≥ 3 µM, respectively.
For `CCOCC1CCn2nc(C(=O)N[C@H]3COc4ccc(-c5ccccn5)cc4C3)cc2O1` (single isomer, unassigned) [124 (isomer B)], the values for the half-inhibitory concentration (IC50) against human Nav1.7 (setting [1]) and against human Nav1.5 (setting [2]) were < 10 µM and ≥ 3 µM, respectively.
Consider `O=C(N[C@H]1COc2ccc(CC(F)F)cc2C1)c1cc2n(n1)CCC(COCC(F)(F)F)O2` (single isomer, unassigned) [127 (isomer B)], for which, at human Nav1.5 (setting [2]), the half-inhibitory concentration (IC50) was ≥ 3 µM.
For `O=C(N[C@H]1COc2ccc(CC(F)F)cc2C1)c1cc2n(n1)CCC(CCOC(F)F)O2` (single isomer, unassigned) [148 (isomer B)], at human Nav1.5 (setting [4]), the 50% inhibitory concentration (IC50) was ≥ 3 µM.
`O=C(N[C@H]1COc2ccc(COCC(F)(F)F)cc2C1)c1cc2n(n1)CCC(CCOC(F)F)O2` (single isomer, unassigned) [150 (isomer B)] returned an IC50 on human Nav1.5 (setting [4]) of 1 to 3 µM.
Consider `O=C(N[C@H]1COc2ccc(Cl)cc2C1)c1cc2n(n1)CCC(CNCC(F)(F)F)O2` (single isomer, unassigned) [152 (isomer B)], for which the IC50 at human Nav1.5 (setting [4]) is ≥ 3 µM.
The same measure, in the same setting: the same measure for `Cn1ccc(-c2ccc3c(c2)C[C@@H](NC(=O)c2cc4n(n2)CC(CCOCC(F)(F)F)O4)CO3)n1` (single isomer, unassigned) [206 (isomer B)]: ≥ 3 µM; for `O=C(N[C@H]1COc2ccc(CC(F)F)cc2C1)c1cc2n(n1)CC(CCOC(F)(F)F)O2` (single isomer, unassigned) [211 (isomer B)]: < 1 µM.
For the compound `N#Cc1ccc2c(c1)C[C@@H](NC(=O)c1cc3n(n1)CC(CCCOC(F)(F)F)O3)CO2` (single isomer, unassigned) [247 (isomer B)], at human Nav1.5 (setting [4]), the IC50 was 1 to 3 µM.
The same measure, in the same setting: the same measure for `O=C(N[C@H]1COc2ccc(C(F)(F)F)cc2C1)c1cc2n(n1)CCC(OCC(F)(F)F)CO2` (single isomer, unassigned) [257 (isomer B)]: ≥ 3 µM; for `O=C(N[C@H]1COc2ccc(COCC(F)(F)F)cc2C1)c1cc2n(n1)CC(CC1CCOCC1)O2` (single isomer, unassigned) [622 (isomer B)]: ≥ 3 µM; for `O=C(N[C@H]1COc2ccc(Br)cc2C1)c1cc2n(n1)CC(C(F)(F)F)O2` (stereo partly shown) [Example 445]: ≥ 3 µM.
